Results published in ChEMBL document CHEMBL3739364, “Synthesis and biological evaluation of novel 5-(hydroxamic acid)methyl oxazolidinone derivatives” (Eur J Med Chem, 2015).
In brackets after ≈: the same amount, converted by molar mass.

Experiments:
[1] = biological target: T1, Amine oxidase [flavin-containing] A (Homo sapiens, UniProt P21397); assay: Reversible inhibition of human MAO-A
T1 sequence (P21397 whole entry): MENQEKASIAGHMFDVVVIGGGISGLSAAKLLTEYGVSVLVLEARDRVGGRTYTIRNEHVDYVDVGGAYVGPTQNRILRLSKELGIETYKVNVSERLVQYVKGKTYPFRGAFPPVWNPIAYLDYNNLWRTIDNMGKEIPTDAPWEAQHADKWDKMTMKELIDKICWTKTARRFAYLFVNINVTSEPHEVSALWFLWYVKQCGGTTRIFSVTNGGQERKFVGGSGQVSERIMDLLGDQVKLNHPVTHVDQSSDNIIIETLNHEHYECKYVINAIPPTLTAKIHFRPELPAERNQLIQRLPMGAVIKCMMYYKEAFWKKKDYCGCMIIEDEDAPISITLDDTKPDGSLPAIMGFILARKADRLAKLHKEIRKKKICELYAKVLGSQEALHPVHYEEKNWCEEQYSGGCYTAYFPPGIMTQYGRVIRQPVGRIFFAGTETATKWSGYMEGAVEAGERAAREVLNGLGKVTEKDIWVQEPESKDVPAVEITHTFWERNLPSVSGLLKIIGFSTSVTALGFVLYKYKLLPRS

[2] = biological target: T2, Amine oxidase [flavin-containing] B (Homo sapiens, UniProt P27338); assay: Reversible inhibition of human MAO-B
T2 sequence (P27338 whole entry): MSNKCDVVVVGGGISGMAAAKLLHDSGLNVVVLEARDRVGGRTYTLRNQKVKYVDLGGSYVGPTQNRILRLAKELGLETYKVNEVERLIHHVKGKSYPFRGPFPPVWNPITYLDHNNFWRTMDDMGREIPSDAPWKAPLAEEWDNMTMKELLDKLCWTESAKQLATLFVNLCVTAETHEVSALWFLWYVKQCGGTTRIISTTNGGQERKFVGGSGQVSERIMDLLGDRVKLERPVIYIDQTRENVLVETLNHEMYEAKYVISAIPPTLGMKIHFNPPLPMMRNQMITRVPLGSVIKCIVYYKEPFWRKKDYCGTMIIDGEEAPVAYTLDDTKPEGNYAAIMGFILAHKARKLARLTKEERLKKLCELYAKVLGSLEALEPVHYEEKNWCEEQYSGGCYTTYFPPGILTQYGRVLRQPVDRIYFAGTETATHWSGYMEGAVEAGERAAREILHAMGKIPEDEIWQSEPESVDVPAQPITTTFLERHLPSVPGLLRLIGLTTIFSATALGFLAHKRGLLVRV

[3] = system: Staphylococcus epidermidis; assay: Antibacterial activity against methicillin-sensitive Staphylococcus epidermidis ATCC 12228; type: functional
[4] = biological target: T3, MAO-A (amine oxidase [flavin-containing] A) (Homo sapiens, UniProt P21397); assay: Inhibition of human recombinant MAO-A using p-tyramine as substrate at 50 to 200 uM measured up to 50 mins by ELISA screening analysis; settings: probe p-tyramine
T3 sequence (P21397 whole entry): T1 sequence (P21397 whole entry)

Streptococcus pneumoniae = assay: Antibacterial activity against Streptococcus pneumoniae; type: functional
Escherichia coli = assay: Antibacterial activity against Escherichia coli ATCC 25922; type: functional
[5] = biological target: T4, MAO-B (amine oxidase [flavin-containing] B) (Homo sapiens, UniProt P27338); assay: Inhibition of human recombinant MAO-B using p-tyramine as substrate at 50 to 200 uM measured up to 50 mins by ELISA screening analysis; settings: probe p-tyramine
T4 sequence (P27338 whole entry): T2 sequence (P27338 whole entry)

Haemophilus influenzae = assay: Antibacterial activity against Haemophilus influenzae ATCC 49247; type: functional
[6] = biological target: T2, Amine oxidase [flavin-containing] B; assay: Inhibition of human recombinant MAO-B using p-tyramine as substrate after 15 mins by UV/Vis spectrophotometer analysis
Staphylococcus aureus [7] = assay: Antibacterial activity against […] Staphylococcus aureus ATCC 25923; type: functional
[8] = biological target: T1, Amine oxidase [flavin-containing] A; assay: Inhibition of human recombinant MAO-A using p-tyramine as substrate after 15 mins by UV/Vis spectrophotometer analysis
Homo sapiens = organism: Homo sapiens; assay: Selectivity ratio of IC50 for human recombinant MAO-A to IC50 for human recombinant MAO-B
[9] = system: Mycobacterium tuberculosis; assay: Antimycobacterial activity against Mycobacterium tuberculosis H37Rv ATCC 27294; type: functional
[10] = system: Staphylococcus epidermidis; assay: Antibacterial activity against methicillin-sensitive Staphylococcus epidermidis ATCC 12228 after 18 hrs by broth dilution method; type: functional; settings: ATCC 12228, 18 h
Staphylococcus aureus [11] = assay: Antibacterial activity against […] Staphylococcus aureus ATCC 25923 after 18 hrs by broth dilution method; type: functional; settings: ATCC 25923, 18 h
[12] = system: Mycobacterium tuberculosis; assay: Antimycobacterial activity against Mycobacterium tuberculosis H37Rv; type: functional

Row | Compound | IC50 [1] | IC50 [2] | MIC [3] | inhibition at 50 min [4] | MIC (Streptococcus pneumoniae) | MIC (Escherichia coli) | inhibition at 50 min [5] | MIC (Haemophilus influenzae) | IC50 [6] | MIC (Staphylococcus aureus [7]) | IC50 [8] | Ratio IC50 (Homo sapiens) | MIC50 [9] | MIC90 [9] | MIC [10] | MIC (Staphylococcus aureus [11]) | MIC [12]
1 | Cn1nnc(-c2ccc(-c3ccc(N4C[C@H](CO)OC4=O)cc3F)cn2)n1 [TEDIZOLID] | 8.7 µM | 5.7 µM | – | – | – | – | – | – | – | – | – | – | – | – | – | – | –
2 | O=C(ON(C[C@H]1CN(c2ccc(N3CCOCC3)c(F)c2)C(=O)O1)C(=O)C1CC1)C1CC1 | – | – | > 32 µg/mL | < 50% | > 32 µg/mL | > 32 µg/mL | < 50% | > 32 µg/mL | – | – | – | – | – | – | – | – | –
3 | CCC(=O)ON(C[C@H]1CN(c2ccc(N3CCOCC3)c(F)c2)C(=O)O1)C(=O)CC | – | – | > 32 µg/mL | < 50% | > 32 µg/mL | > 32 µg/mL | ≥ 50% | > 32 µg/mL | 168 µM | – | – | – | – | – | – | – | –
4 | CC(=O)N(O)C[C@H]1CN(c2ccc(N3CCN(C(C)=O)CC3)c(F)c2)C(=O)O1 | – | – | > 32 µg/mL | < 50% | > 32 µg/mL | > 32 µg/mL | < 50% | > 32 µg/mL | – | > 32 µg/mL | – | – | – | – | – | – | –
5 | CC(=O)ON(C[C@H]1CN(c2ccc(N3CCOCC3)c(F)c2)C(=O)O1)C(C)=O | – | – | > 32 µg/mL | < 50% | > 32 µg/mL | > 32 µg/mL | < 50% | > 32 µg/mL | – | – | – | – | – | – | – | – | –
6 | CC(C)C(=O)N(O)C[C@H]1CN(c2ccc(N3CCOCC3)c(F)c2)C(=O)O1 | – | – | > 32 µg/mL | < 50% | > 32 µg/mL | > 32 µg/mL | ≥ 50% | > 32 µg/mL | 107 µM | > 32 µg/mL | – | – | – | – | – | – | –
7 | CC(=O)NC[C@H]1CN(c2ccc(N3CCOCC3)c(F)c2)C(=O)O1 [LINEZOLID] | 46 µM | 2.1 µM | 2 µg/mL (≈ 5.93 µM) | ≥ 50% | – | – | ≥ 50% | – | – | – | – | – | – | – | – | – | –
8 | CC(C)C(=O)ON(C[C@H]1CN(c2ccc(N3CCOCC3)c(F)c2)C(=O)O1)C(=O)C(C)C | – | – | > 32 µg/mL | < 50% | > 32 µg/mL | > 32 µg/mL | ≥ 50% | > 32 µg/mL | 108 µM | – | – | – | – | – | – | – | –
9 | CCC(=O)N(O)C[C@H]1CN(c2ccc(N3CCN(C(C)=O)CC3)c(F)c2)C(=O)O1 | – | – | > 32 µg/mL | < 50% | > 32 µg/mL | > 32 µg/mL | – | > 32 µg/mL | – | > 32 µg/mL | – | – | – | – | – | – | –
10 | CC(=O)N1CCN(c2ccc(N3C[C@H](CNO)OC3=O)cc2F)CC1.O=C(O)C(F)(F)F | – | – | > 32 µg/mL | ≥ 50% | > 32 µg/mL | > 32 µg/mL | – | > 32 µg/mL | – | > 32 µg/mL | 46.6 µM | – | – | – | – | – | –
11 | CCC(=O)N(O)C[C@H]1CN(c2ccc(N3CCOCC3)c(F)c2)C(=O)O1 | – | – | > 32 µg/mL | ≥ 50% | > 32 µg/mL | > 32 µg/mL | ≥ 50% | > 32 µg/mL | 100 µM | > 32 µg/mL | 115 µM | 1.15 | – | – | – | – | –
12 | CC(=O)N1CCN(c2ccc(N3C[C@H](CN(OC(=O)C4CC4)C(=O)C4CC4)OC3=O)cc2F)CC1 | – | – | > 32 µg/mL | < 50% | > 32 µg/mL | > 32 µg/mL | – | > 32 µg/mL | – | – | – | – | – | – | – | – | –
13 | CCC(=O)ON(C[C@H]1CN(c2ccc(N3CCN(C(C)=O)CC3)c(F)c2)C(=O)O1)C(=O)CC | – | – | > 32 µg/mL | < 50% | > 32 µg/mL | > 32 µg/mL | – | > 32 µg/mL | – | – | – | – | – | – | – | – | –
14 | CC(=O)N(O)C[C@H]1CN(c2ccc(N3CCOCC3)c(F)c2)C(=O)O1 | – | – | – | < 50% | > 32 µg/mL | > 32 µg/mL | < 50% | > 32 µg/mL | – | – | – | – | 1.38 µg/mL (≈ 3.91 µM) | 4.6 µg/mL (≈ 13 µM) | 16 µg/mL (≈ 45.3 µM) | > 32 µg/mL | –
15 | O=C1O[C@@H](CNO)CN1c1ccc(N2CCOCC2)c(F)c1 | – | – | > 32 µg/mL | ≥ 50% | > 32 µg/mL | > 32 µg/mL | ≥ 50% | > 32 µg/mL | 112 µM | > 32 µg/mL | 144 µM | 1.29 | – | – | – | – | –
16 | NC(=S)NC[C@H]1CN(c2ccc(C3CCCCC3=O)c(F)c2)C(=O)O1 (some centres not stated) | – | – | – | – | – | – | – | – | – | – | – | – | – | – | – | – | 0.06 µg/mL (≈ 0.164 µM)
17 | CC(=O)ON(C[C@H]1CN(c2ccc(N3CCN(C(C)=O)CC3)c(F)c2)C(=O)O1)C(C)=O | – | – | > 32 µg/mL | < 50% | > 32 µg/mL | > 32 µg/mL | – | > 32 µg/mL | – | – | – | – | – | – | – | – | –
18 | CC(=O)N1CCN(c2ccc(N3C[C@H](CN(OC(=O)C(C)C)C(=O)C(C)C)OC3=O)cc2F)CC1 | – | – | > 32 µg/mL | < 50% | > 32 µg/mL | > 32 µg/mL | < 50% | > 32 µg/mL | – | – | – | – | – | – | – | – | –
19 | O=C(C1CC1)N(O)C[C@H]1CN(c2ccc(N3CCOCC3)c(F)c2)C(=O)O1 | – | – | > 32 µg/mL | ≥ 50% | > 32 µg/mL | > 32 µg/mL | ≥ 50% | > 32 µg/mL | 90.9 µM | > 32 µg/mL | 112 µM | 1.23 | – | – | – | – | –
